# Measurements from publication PMC12118597 (Science Advances, 2025).
# Several values for one entry are separate records, joined by “and”; a condition that tells them apart may be missing. Equal values may be shown once. Entries after “also recorded” stand apart in the source; their conditions may differ. Read-outs that look alike come from different tables or passages of the source.
# Key:
# [1] = target: T1, SARS-CoV-2 NSP3 macrodomain (Mac1) (Severe acute respiratory syndrome coronavirus 2, UniProt P0DTD1); assay: biochemical; format: binding
# [2] = target: T1, SARS-CoV-2 NSP3 macrodomain (Mac1); format: binding; conditions: for 1-BDC: PanDDA background density correction; for 1-BDC (PanDDA run, DMSO background map): event 1; for Refined ligand occupancy (%): crystallographic refinement; for 2*(1-BDC) (%): occupancy estimate from PanDDA; for Phe132 loop open state: open state of Phe132 loop seen in the ligand-bound structure
# [3] = HTRF binding curve, SARS-CoV-2 Mac1
# [4] = SARS CoV-2 macrodomain HTRF assay, dose-response
# [5] = crystal soak, 10 mM soak concentration, P43 crystal form
# [6] = crystal soak concentration 10 mM
# [7] = crystal soak concentration 10 mM, P43 crystals
# [8] = ligand-bound crystal structure obtained (TRUE)
# [9] = site occupied in X-ray crystal structure
smiles,measurement,setting,value
O=C(O)C(F)(F)F.OC[C@H](Cc1ccc(O)cc1)Nc1ncnc2[nH]ccc12 [AVI-4066],Hill slope,[1]; [3],1.1
same,Hill slope,[1]; [4],1.1
same,1-BDC,[2],0.2
same,X-ray crystal structure,[2]; TRUE = crystal structure with ligand obtained,TRUE
same,"Hit (PanDDA run, DMSO background map)",[2]; crystal soak 10 mM,TRUE
same,"1-BDC (PanDDA run, DMSO background map)",[2]; crystal soak 10 mM,0.2 and 0.37 and 0.38
same,"Hit (PanDDA run, overall)",[2]; [5],TRUE
same,Refined ligand occupancy (%),[2],50%
same,2*(1-BDC) (%),[2],40%
same,Binding site,[2]; site of ligand in X-ray crystal structure,Adenosine
CC(C)(O)C1N(c2ncnc3[nH]ccc23)CCC1(C)C (stereo not drawn) [AVI-4126],Hill slope,[1]; [3],1.3
same,Hill slope,[1]; [4],1.3
same,1-BDC,[2],0.16
same,"Hit (PanDDA run, DMSO background map)",[2]; [6],TRUE
same,"Modeled (PanDDA run, DMSO background map)",[2]; [6],TRUE
same,"1-BDC (PanDDA run, DMSO background map)",[2]; [6],0.17 and 0.16
same,"Hit (PanDDA run, overall)",[2]; [7],TRUE
same,"Modeled (PanDDA run, overall)",[2]; [7],TRUE
same,"Modeling comment (PanDDA run, overall)",[2]; [7],"Duplicate, not modeled"
same,Refined ligand occupancy (%),[2],40%
same,X-ray crystal structure,[2]; [8],TRUE
same,2*(1-BDC) (%),[2],32%
same,Phe132 loop open state,[2],TRUE
same,Binding site,[2]; [9],Adenosine
CC(C)(O)C1C2CCCCC2CN1c1ncnc2[nH]ccc12 (stereo not drawn) [AVI-4127],Hill slope,[1]; [3],1.3
same,Hill slope,[1]; [4],1.3
same,1-BDC,[2],0.25
same,"Hit (PanDDA run, DMSO background map)",[2]; [6],TRUE
same,"Modeled (PanDDA run, DMSO background map)",[2]; [6],TRUE
same,"1-BDC (PanDDA run, DMSO background map)",[2]; [6],0.23 and 0.25
same,"Hit (PanDDA run, overall)",[2]; [7],TRUE
same,"Modeled (PanDDA run, overall)",[2]; [7],TRUE
same,"Modeling comment (PanDDA run, overall)",[2]; [7],"Duplicate, not modeled"
same,Refined ligand occupancy (%),[2],60%
same,X-ray crystal structure,[2]; [8],TRUE
same,2*(1-BDC) (%),[2],50%
same,Phe132 loop open state,[2],TRUE
same,Binding site,[2]; [9],Adenosine
CC(C)(O)C1C2CCC2CN1c1ncnc2[nH]ccc12 (stereo not drawn) [AVI-4128],Hill slope,[1]; [3],1.2
same,Hill slope,[1]; [4],1.2
same,1-BDC,[2],0.2
same,"Hit (PanDDA run, DMSO background map)",[2]; [6],TRUE
same,"Modeled (PanDDA run, DMSO background map)",[2]; [6],TRUE
same,"1-BDC (PanDDA run, DMSO background map)",[2]; [6],0.27 and 0.2
same,"Hit (PanDDA run, overall)",[2]; [7],TRUE
same,"Modeled (PanDDA run, overall)",[2]; [7],TRUE
same,"Modeling comment (PanDDA run, overall)",[2]; [7],"Duplicate, not modeled; also recorded: Weak density for open conformation"
same,Refined ligand occupancy (%),[2],60%
same,X-ray crystal structure,[2]; [8],TRUE
same,2*(1-BDC) (%),[2],40%
same,Binding site,[2]; [9],Adenosine
"Cc1c[nH]c2ncnc(NCC3(O)CCOCC3)c12 [AVI-4194, 4-(((5-methyl-7H-pyrrolo[2,3-d]pyrimidin-4-yl)amino)methyl)tetrahydro-2H-pyran-4-ol]",Hill slope,[1]; [3],1.3
same,Hill slope,[1]; [4],1.3
same,1-BDC,[2],0.09
same,"Hit (PanDDA run, DMSO background map)",[2]; [6],TRUE
same,"Modeled (PanDDA run, DMSO background map)",[2]; [6],TRUE
same,"1-BDC (PanDDA run, DMSO background map)",[2]; [6],0.13 and 0.09
same,"Hit (PanDDA run, overall)",[2]; [7],TRUE
same,"Modeled (PanDDA run, overall)",[2]; [7],TRUE
same,"Modeling comment (PanDDA run, overall)",[2]; [7],"Duplicate, not modeled"
same,Refined ligand occupancy (%),[2],18%
same,X-ray crystal structure,[2]; [8],TRUE
same,2*(1-BDC) (%),[2],18%
same,Binding site,[2]; [9],Adenosine
"Cc1c[nH]c2ncnc(NCC3(O)CCSCC3)c12 [AVI-4195, 4-(((5-methyl-7H-pyrrolo[2,3-d]pyrimidin-4-yl)amino)methyl)tetrahydro-2H-thiopyran-4-ol]",Hill slope,[1]; [3],1.2
same,Hill slope,[1]; [4],1.2
same,1-BDC,[2],0.14
same,"Hit (PanDDA run, DMSO background map)",[2]; [6],TRUE
same,"Modeled (PanDDA run, DMSO background map)",[2]; [6],TRUE
same,"1-BDC (PanDDA run, DMSO background map)",[2]; [6],0.14
same,"Hit (PanDDA run, overall)",[2]; [7],TRUE
same,"Modeled (PanDDA run, overall)",[2]; [7],TRUE
same,"Modeling comment (PanDDA run, overall)",[2]; [7],"Duplicate, not modeled"
same,Refined ligand occupancy (%),[2],28%
same,X-ray crystal structure,[2]; [8],TRUE
same,2*(1-BDC) (%),[2],28%
same,Binding site,[2]; [9],Adenosine
CC1CCCC(O)(CNc2ncnc3[nH]ccc23)C1 (stereo not drawn) [AVI-4307],Hill slope,[1]; [3],1.0
same,Hill slope,[1]; [4],1.0
same,1-BDC,[2],0.17
same,"Hit (PanDDA run, DMSO background map)",[2]; crystal soak 10 mM,TRUE
same,"1-BDC (PanDDA run, DMSO background map)",[2]; crystal soak 10 mM,0.17
same,"Hit (PanDDA run, overall)",[2]; [5],TRUE
same,Refined ligand occupancy (%),[2],34%
same,X-ray crystal structure,[2]; [8],TRUE
same,2*(1-BDC) (%),[2],34%
same,Binding site,[2]; [9],Adenosine
OC1(CNc2ncnc3[nH]ccc23)CCC(F)(F)CC1 [AVI-4308],Hill slope,[1]; [3],1.2
same,Hill slope,[1]; [4],1.2
same,1-BDC,[2],0.15
same,"Hit (PanDDA run, DMSO background map)",[2]; crystal soak 10 mM,TRUE
same,"1-BDC (PanDDA run, DMSO background map)",[2]; crystal soak 10 mM,0.15
same,"Hit (PanDDA run, overall)",[2]; [5],TRUE
same,Refined ligand occupancy (%),[2],30%
same,X-ray crystal structure,[2]; [8],TRUE
same,2*(1-BDC) (%),[2],30%
same,Binding site,[2]; [9],Adenosine
OC1(CNc2ncnc3[nH]ccc23)CCCC(C(F)(F)F)C1 (stereo not drawn) [AVI-4309],Hill slope,[1]; [3],1.4
same,Hill slope,[1]; [4],1.4
same,1-BDC,[2],0.2
same,"Hit (PanDDA run, DMSO background map)",[2]; crystal soak 10 mM,TRUE
same,"1-BDC (PanDDA run, DMSO background map)",[2]; crystal soak 10 mM,0.21
same,"Hit (PanDDA run, overall)",[2]; [5],TRUE
same,Refined ligand occupancy (%),[2],40%
same,X-ray crystal structure,[2]; [8],TRUE
same,2*(1-BDC) (%),[2],40%
same,Binding site,[2]; [9],Adenosine
CC1(C)CCC(O)(CNc2ncnc3[nH]ccc23)CC1 [AVI-4310],Hill slope,[1]; [3],1.3
same,Hill slope,[1]; [4],1.3
same,"Hit (PanDDA run, DMSO background map)",[2]; crystal soak 10 mM,TRUE
same,"1-BDC (PanDDA run, DMSO background map)",[2]; crystal soak 10 mM,0.14
same,Modeling comment (ligand density),"[2]; crystal soak 10 mM, PanDDA run, overall","Weak density, not modeled"
same,"Hit (PanDDA run, overall)",[2]; [5],TRUE
OC1(CNc2ncnc3[nH]ccc23)CCCOC1 (stereo not drawn) [AVI-4311],Hill slope,[1]; [3],1.4
same,Hill slope,[1]; [4],1.4
same,1-BDC,[2],0.25
same,"Hit (PanDDA run, DMSO background map)",[2]; crystal soak 10 mM,TRUE
same,"1-BDC (PanDDA run, DMSO background map)",[2]; crystal soak 10 mM,0.25
same,"Hit (PanDDA run, overall)",[2]; [5],TRUE
same,Refined ligand occupancy (%),[2],50%
same,X-ray crystal structure,[2]; [8],TRUE
same,2*(1-BDC) (%),[2],50%
same,Binding site,[2]; [9],Adenosine
CC1CCC(O)(CNc2ncnc3[nH]ccc23)CC1 (stereo not drawn) [AVI-4312],Hill slope,[1]; [3],1.2
same,Hill slope,[1]; [4],1.2
same,1-BDC,[2],0.22
same,Refined ligand occupancy (%),[2],44%
same,X-ray crystal structure,[2]; [8],TRUE
same,2*(1-BDC) (%),[2],44%
same,Binding site,[2]; [9],Adenosine
OC1(CNc2ncnc3[nH]ccc23)COC2CC1C2 (stereo not drawn) [AVI-4313],Hill slope,[1]; [3],1.2
same,Hill slope,[1]; [4],1.2
same,1-BDC,[2],0.19
same,Refined ligand occupancy (%),[2],38%
same,X-ray crystal structure,[2]; [8],TRUE
same,2*(1-BDC) (%),[2],38%
same,Binding site,[2]; [9],Adenosine
OC1(CNc2ncnc3[nH]ccc23)CCOCC1 [AVI-4314],Hill slope,[1]; [3],1.2
same,Hill slope,[1]; [4],1.2
same,1-BDC,[2],0.15
same,Refined ligand occupancy (%),[2],30%
same,X-ray crystal structure,[2]; [8],TRUE
same,2*(1-BDC) (%),[2],30%
same,Binding site,[2]; [9],Adenosine
O=S1(=O)CCCC(O)(CNc2ncnc3[nH]ccc23)C1 (stereo not drawn) [AVI-4317],Hill slope,[1]; [3],1.2
same,Hill slope,[1]; [4],1.2
same,1-BDC,[2],0.43
same,Refined ligand occupancy (%),[2],100%
same,X-ray crystal structure,[2]; [8],TRUE
same,2*(1-BDC) (%),[2],86%
same,Binding site,[2]; [9],Adenosine
CN(CC1(O)CCOCC1)c1ncnc2[nH]ccc12 [AVI-4318],Hill slope,[1]; [3],1.2
same,Hill slope,[1]; [4],1.2
same,1-BDC,[2],0.25
same,Refined ligand occupancy (%),[2],50%
same,X-ray crystal structure,[2]; [8],TRUE
same,2*(1-BDC) (%),[2],50%
same,Binding site,[2]; [9],Adenosine
OC1(CNc2ncnc3[nH]ccc23)CCSCC1 [AVI-4319],Hill slope,[1]; [3],1.2
same,Hill slope,[1]; [4],1.2
same,1-BDC,[2],0.16
same,Refined ligand occupancy (%),[2],32%
same,X-ray crystal structure,[2]; [8],TRUE
same,2*(1-BDC) (%),[2],32%
same,Binding site,[2]; [9],Adenosine
